According to patent US11185531B2, “Arginine methyltransferase inhibitors and uses thereof” (Epizyme, Inc., priority 2013, dated 2021):

How the values were obtained:
human PRMT8 = biological target: T1, human PRMT8 (Homo sapiens, UniProt Q9NR22); assay: PRMT8 Biochemical Assay (3H-SAM Flashplate, peptide substrate); settings: 30 min preincubation
T1 construct: Full-length human PRMT8 (NM_019854.4) isoform 1 transcript clone; GST (N, cleaved yes); made in house; host or cells: E. coli BL21(DE3) Gold
Description: Peptide representative of human histone H4 residues 31-45 was synthesized with an N-terminal linker-affinity tag motif and a C-terminal amide cap by 21st Century Biochemicals. The peptide was purified by high-performance liquid chromatography (HPLC) to greater than 95% purity and confirmed by liquid chromatography mass spectrometry (LC-MS). The sequence was Biot-Ahx-[…]-amide (SEQ ID NO:8).
The resulting construct encodes an N-terminal GST tag and a thrombin cleavage sequence
GST-tagged PRMT8 was eluted with 50 mM Tris, 2 mM glutathione, pH 7.8. Pooled fractions were cleaved by thrombin (10 U) and dialysed in buffer A. GST was removed by reloading the cleaved protein sample onto glutathione sepharose column and PRMT8 was collected in the flow-through fractions. PRMT8 was purified further by ceramic hydroxyapatite chromatography. The column was washed with 50 mM phosphate buffer, 100 mM NaCl, 5% glycerol, 5 mM 3-mercaptoethanol, pH 7.8 and PRMT8 was eluted by 100 mM phosphate in the same buffer. Protein was concentrated and buffer was exchanged to 50 mM Tris, 300 mM NaCl, 10% glycerol, 5 mM β-mercaptoethanol, pH 7.8 by ultrafiltration. The purity of recovered protein was 89%.
General Procedure for PRMT8 Enzyme Assays on Peptide Substrates.
The assays were all performed in a buffer consisting of 20 mM Bicine (pH=7.6), 1 mM TCEP, 0.005% BSG, and 0.002% Tween 20, prepared on the day of use. Compounds in 100% DMSO (1 ul) were spotted into a polypropylene 384-well V-bottom plates (Greiner) using a Platemate Plus outfitted with a 384-channel head (Thermo Scientific). DMSO (1 ul) was added to Columns 11, 12, 23, 24, rows A-H for the maximum signal control and 1 ul of SAH, a known product and inhibitor of PRMT8, was added to columns 11, 12, 23, 24, rows I-P for the minimum signal control. A cocktail (40 ul) containing the PRMT8 enzyme was added by Multidrop Combi (Thermo-Fisher). The compounds were allowed to incubate with PRMT8 for 30 min at room temperature, then a cocktail (10 ul) containing ^3H-SAM and peptide was added to initiate the reaction (final volume=51 ul). The final concentrations of the components were as follows: PRMT8 was 1.5 nM, ^3H-SAM was 50 nM, non-radiolabeled SAM was 550 nM, peptide was 150 nM, SAH in the minimum signal control wells was 1 mM, and the DMSO concentration was 2%. The assays were stopped by the addition of non-radiolabeled SAM (10 ul) to a final concentration of 400 uM, which dilutes the ^3H-SAM to a level where its incorporation into the peptide substrate is no longer detectable. 50 ul of the reaction in the 384-well polypropylene plate was then transferred to a 384-well Flashplate and the biotinylated peptides were allowed to bind to the streptavidin surface for at least 1 hour before being washed once with 0.1% Tween20 in a Biotek ELx405 plate washer. The plates were then read in a PerkinElmer TopCount plate reader to measure the quantity of ^3H-labeled peptide bound to the Flashplate surface, measured as disintegrations per minute (dpm) or alternatively, referred to as counts per minute (cpm).
(§1) Where dpm=disintegrations per minute, cmpd=signal in assay well, and min and max are the respective minimum and maximum signal controls.
(§2) Where top and bottom are the normally allowed to float, but may be fixed at 100 or 0 respectively in a 3-parameter fit. The Hill Coefficient normally allowed to float but may also be fixed at 1 in a 3-parameter fit. Y is the % inhibition and X is the compound concentration.

human PRMT6 = biological target: T2, human PRMT6 (Homo sapiens, UniProt Q96LA8); assay: PRMT6 Biochemical Assay (3H-SAM Flashplate, peptide substrate); settings: 30 min preincubation
T2 construct: Flag-PRMT6-His was eluted with 200 ug/ml FLAG peptide in the same buffer; made in house; host or cells: HEK 293F cells (BacMam baculovirus, pFastBacMam)
Description: Peptide representative of human histone H4 residues 36-50 was synthesized with an N-terminal linker-affinity tag motif and a C-terminal amide cap by 21st Century Biochemicals. The peptide was purified by high-performance liquid chromatography (HPLC) to greater than 95% purity and confirmed by liquid chromatography mass spectrometry (LC-MS). The sequence was Biot-Ahx-[…]-amide and contained a monomethylated lysine at position 44 (SEQ ID NO:5).
Full-length human PRMT6 (NM_018137.2) transcript clone was amplified from an HEK 293 cDNA library, incorporating a flanking 5′ sequence encoding a FLAG tag ([…]) (SEQ ID NO:6) fused directly to Ser 2 of PRMT6 and a 3′ sequence encoding a hexa His sequence (HHHHHH) fused directly to Asp 375. The amplified gene was subcloned into pFastBacMam (Viva Biotech).
Column was washed with 20 mM imidazole in the same buffer and Flag-PRMT6-His was eluted with 150 mM imidazole. Pooled fractions were dialysed against buffer Ni-A and further purified by anti-flag M2 affinity chromatography. Flag-PRMT6-His was eluted with 200 ug/ml FLAG peptide in the same buffer. Pooled fractions were dialysed in 20 mM Tris, 150 mM NaCl, 10% glycerol and 5 mM 3-mercaptoethanol, pH 7.8. The purity of recovered protein was 95%.
General Procedure for PRMT6 Enzyme Assays on Peptide Substrates.
The assays were all performed in a buffer consisting of 20 mM Bicine (pH=7.6), 1 mM TCEP, 0.005% BSG, and 0.002% Tween 20, prepared on the day of use. Compounds in 100% DMSO (1 ul) were spotted into a polypropylene 384-well V-bottom plates (Greiner) using a Platemate Plus outfitted with a 384-channel head (Thermo Scientific). DMSO (1 ul) was added to Columns 11, 12, 23, 24, rows A-H for the maximum signal control and 1 ul of SAH, a known product and inhibitor of PRMT6, was added to columns 11, 12, 23, 24, rows I-P for the minimum signal control. A cocktail (40 ul) containing the PRMT6 enzyme was added by Multidrop Combi (Thermo-Fisher). The compounds were allowed to incubate with PRMT6 for 30 min at room temperature, then a cocktail (10 ul) containing SAM and peptide was added to initiate the reaction (final volume=51 ul). The final concentrations of the components were as follows: PRMT6 was 1 nM, ^3H-SAM was 200 nM, non-radiolabeled SAM was 250 nM, peptide was 75 nM, SAH in the minimum signal control wells was 1 mM, and the DMSO concentration was 2%. The assays were stopped by the addition of non-radiolabeled SAM (10 ul) to a final concentration of 400 uM, which dilutes the ^3H-SAM to a level where its incorporation into the peptide substrate is no longer detectable. 50 ul of the reaction in the 384-well polypropylene plate was then transferred to a 384-well Flashplate and the biotinylated peptides were allowed to bind to the streptavidin surface for at least 1 hour before being washed once with 0.1% Tween20 in a Biotek ELx405 plate washer. The plates were then read in a PerkinElmer TopCount plate reader to measure the quantity of ^3H-labeled peptide bound to the Flashplate surface, measured as disintegrations per minute (dpm) or alternatively, referred to as counts per minute (cpm).
as §1, §2

T2 sequence (Q96LA8 with tags, fused parts or gaps): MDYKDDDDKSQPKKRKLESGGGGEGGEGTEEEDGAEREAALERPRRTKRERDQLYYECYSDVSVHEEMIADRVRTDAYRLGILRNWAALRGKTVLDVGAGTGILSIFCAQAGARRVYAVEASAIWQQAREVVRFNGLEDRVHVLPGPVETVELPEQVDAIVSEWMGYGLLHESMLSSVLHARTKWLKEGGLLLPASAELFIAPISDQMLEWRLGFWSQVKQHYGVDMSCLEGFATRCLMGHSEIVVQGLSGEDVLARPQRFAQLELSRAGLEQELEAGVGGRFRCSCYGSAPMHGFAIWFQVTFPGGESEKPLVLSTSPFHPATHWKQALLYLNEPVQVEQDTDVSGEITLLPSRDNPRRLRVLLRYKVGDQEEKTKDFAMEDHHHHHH
T1 sequence (Q9NR22 whole entry, canonical isoform): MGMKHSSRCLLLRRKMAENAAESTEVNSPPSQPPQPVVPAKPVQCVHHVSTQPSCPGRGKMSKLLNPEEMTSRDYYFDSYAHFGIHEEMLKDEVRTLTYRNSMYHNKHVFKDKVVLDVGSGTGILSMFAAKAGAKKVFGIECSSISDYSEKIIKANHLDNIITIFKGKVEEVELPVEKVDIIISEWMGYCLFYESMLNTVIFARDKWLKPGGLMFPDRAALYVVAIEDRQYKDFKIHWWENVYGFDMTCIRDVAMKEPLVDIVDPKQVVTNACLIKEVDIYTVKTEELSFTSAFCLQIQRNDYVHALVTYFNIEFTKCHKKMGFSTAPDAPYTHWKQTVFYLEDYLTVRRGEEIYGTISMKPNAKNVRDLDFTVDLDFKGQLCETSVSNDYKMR

Row | Compound | IC50 (human PRMT8) [µM] | IC50 (human PRMT6) [µM]
1 | CN(CCN)Cc1c[nH]nc1C1CCCCC1 [Compound 22] | 0.101 to 1 | < 0.1
2 | CN(CCN)Cc1c[nH]nc1CCc1ccc(F)cc1 [Compound 23, N^1-((3-(4-fluorophenethyl)-1H-pyrazol-4-yl)methyl)-N^1-methylethane-1,2-diamine] | 0.101 to 1 | < 0.1
3 | CN(CCN)Cc1c[nH]nc1/C=C/Cc1ccccc1 [Compound 24] | 0.101 to 1 | 0.101 to 1
4 | CN(CCN)Cc1c[nH]nc1C1=CCCC1 [Compound 25] | 1.01 to 3 | 0.101 to 1
5 | CN(CCN)Cc1c[nH]nc1C1CCC1 [Compound 26] | 3.01 to 10 | 0.101 to 1
6 | CC(C)Cc1n[nH]cc1CN(C)CCN [Compound 28, N^1-((3-iso-butyl-1H-pyrazol-4-yl)methyl)-N^1-methylethane-1,2-diamine] | 1.01 to 3 | < 0.1
7 | CCCc1n[nH]cc1CN(C)CCN [Compound 29] | 1.01 to 3 | 0.101 to 1
8 | Cc1n[nH]cc1CN(C)CCN [Compound 30] | 3.01 to 10 | 0.101 to 1
9 | CN(CCN)Cc1c[nH]nc1C1CCCC1 [Compound 31] | > 10 | 3.01 to 10
10 | CNCCN(C)Cc1c[nH]nc1C1CCN(C(=O)Cc2ccccc2)CC1 [Compound 32] | 1.01 to 3 | < 0.1
11 | CN(CCN)Cc1n[nH]cc1C1CCCCC1 [Compound 33] | 0.101 to 1 | < 0.1
12 | CNCCN(C)Cc1c[nH]nc1C1CCN(C(=O)C(C)C)CC1 [Compound 34] | 0.101 to 1 | < 0.1
13 | CC1CCC(c2c[nH]nc2CN(C)CCN)CC1 (stereo not drawn) [Compound 35] | 0.101 to 1 | < 0.1
14 | CN(CCN)Cc1n[nH]cc1C1CCC(C)(C)CC1 [Compound 36] | 0.101 to 1 | < 0.1
15 | CC1CCC(c2n[nH]cc2CN(C)CCN)CC1 (stereo not drawn) [Compound 37, N^1-methyl-N^1-((3-(4-methylcyclohexyl)-1H-pyrazol-4-yl)methyl)ethane-1,2-diamine] | 0.101 to 1 | < 0.1
16 | CN(CCN)Cc1c[nH]nc1C1CCC(C)(C)CC1 [Compound 38, N^1-((3-(4,4-dimethylcyclohexyl)-1H-pyrazol-4-yl)methyl)-N^1-methylethane-1,2-diamine] | 0.101 to 1 | < 0.1
17 | CNCCN(C)Cc1c[nH]nc1C1CCN(CC(C)C)CC1 [Compound 39, N^1-((3-(1-isobutylpiperidin-4-yl)-1H-pyrazol-4-yl)methyl)-N^1,N^2-dimethylethane-1,2-diamine] | 0.101 to 1 | < 0.1
18 | CNCCN(C)Cc1c[nH]nc1C1CCN(C)CC1 [Compound 41] | 3.01 to 10 | < 0.1
19 | CNCCN(C)Cc1c[nH]nc1C1CCNCC1 [Compound 42] | 0.101 to 1 | < 0.1
20 | CN(CCN)Cc1n[nH]cc1C1CCC(N2CCOCC2)CC1 (stereo not drawn) [Compound 44, N^1-methyl-N^1-((4-(4-morpholinocyclohexyl)-1H-pyrazol-3-yl)methyl)ethane-1,2-diamine] | – | 0.101 to 1
